Test results from patent US9833518B2, “Heteromultivalent particle compositions” (CASE WESTERN RESERVE UNIVERSITY, priority 2012, dated 2017).

Key:
[1] = system: fibrinogen-mediated platelet aggregation; experiment: Aggregometry assay of free peptides in platelet-rich plasma; format: cell-based, human
Description: Affinity of free lRGD and cRGD peptides to bind activated platelets was characterized by ‘half maximal Inhibitory Concentration’ (IC50) value, which, in our assays, was the concentration of peptide required to inhibit fibrinogen-mediated platelet aggregation in platelet-rich plasma (PRP) by 50%, in an aggregometry (Bio/Data, PAP-4) set-up. PRP was prepared from citrated human whole blood by centrifugation at 800 RPM for 15 min at 25° C. 50 μl aliquots of PRP were warmed to 37° C. for 2 minutes, incubated with various concentrations of lRGD and cRGD peptide in the presence of agonist adenosine di-phosphate (ADP, 10 μM) and the maximal aggregation percentage was determined while stifling for 15 min. Consequently, from the maximal aggregation percentage and comparison to aggregation without peptides, inhibition percentage was determined.

GPIIb-IIIa (αIIbβ3) = GPIIb-IIIa (αIIbβ3) (Homo sapiens, UniProt P05106+P08514); conditions: reported in literature; cited from earlier work
GPIIb-IIIa (αIIbβ3), sequence (P08514 32-887 limits assumed): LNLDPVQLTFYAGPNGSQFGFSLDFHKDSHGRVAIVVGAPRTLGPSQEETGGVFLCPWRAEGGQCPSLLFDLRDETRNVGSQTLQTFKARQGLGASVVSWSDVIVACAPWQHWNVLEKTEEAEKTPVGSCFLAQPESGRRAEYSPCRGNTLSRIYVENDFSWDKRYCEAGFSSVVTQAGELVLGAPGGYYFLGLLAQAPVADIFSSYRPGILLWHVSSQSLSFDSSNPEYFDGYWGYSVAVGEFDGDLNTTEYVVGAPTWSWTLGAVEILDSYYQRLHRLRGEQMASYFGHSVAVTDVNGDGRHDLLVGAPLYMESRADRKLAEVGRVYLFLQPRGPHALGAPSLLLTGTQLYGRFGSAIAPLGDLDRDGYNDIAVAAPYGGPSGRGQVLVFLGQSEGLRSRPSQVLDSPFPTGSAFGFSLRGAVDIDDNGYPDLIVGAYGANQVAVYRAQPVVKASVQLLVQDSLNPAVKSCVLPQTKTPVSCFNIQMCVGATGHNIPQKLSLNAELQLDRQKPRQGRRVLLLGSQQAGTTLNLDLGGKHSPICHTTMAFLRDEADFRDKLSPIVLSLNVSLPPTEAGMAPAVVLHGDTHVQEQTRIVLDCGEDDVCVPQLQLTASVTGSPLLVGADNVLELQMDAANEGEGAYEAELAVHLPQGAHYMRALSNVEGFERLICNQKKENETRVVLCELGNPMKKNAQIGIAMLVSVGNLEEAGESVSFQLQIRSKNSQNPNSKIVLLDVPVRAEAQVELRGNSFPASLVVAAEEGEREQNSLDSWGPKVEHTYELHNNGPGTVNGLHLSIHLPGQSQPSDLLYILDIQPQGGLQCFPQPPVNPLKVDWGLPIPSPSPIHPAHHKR
GPIIb-IIIa (αIIbβ3), sequence (P08514 891-1039 partner limits assumed): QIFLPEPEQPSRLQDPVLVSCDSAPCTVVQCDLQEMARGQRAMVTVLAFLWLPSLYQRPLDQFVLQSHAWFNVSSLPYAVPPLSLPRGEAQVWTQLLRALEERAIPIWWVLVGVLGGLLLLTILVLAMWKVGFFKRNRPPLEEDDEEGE
GPIIb-IIIa (αIIbβ3), sequence (P05106 27-788): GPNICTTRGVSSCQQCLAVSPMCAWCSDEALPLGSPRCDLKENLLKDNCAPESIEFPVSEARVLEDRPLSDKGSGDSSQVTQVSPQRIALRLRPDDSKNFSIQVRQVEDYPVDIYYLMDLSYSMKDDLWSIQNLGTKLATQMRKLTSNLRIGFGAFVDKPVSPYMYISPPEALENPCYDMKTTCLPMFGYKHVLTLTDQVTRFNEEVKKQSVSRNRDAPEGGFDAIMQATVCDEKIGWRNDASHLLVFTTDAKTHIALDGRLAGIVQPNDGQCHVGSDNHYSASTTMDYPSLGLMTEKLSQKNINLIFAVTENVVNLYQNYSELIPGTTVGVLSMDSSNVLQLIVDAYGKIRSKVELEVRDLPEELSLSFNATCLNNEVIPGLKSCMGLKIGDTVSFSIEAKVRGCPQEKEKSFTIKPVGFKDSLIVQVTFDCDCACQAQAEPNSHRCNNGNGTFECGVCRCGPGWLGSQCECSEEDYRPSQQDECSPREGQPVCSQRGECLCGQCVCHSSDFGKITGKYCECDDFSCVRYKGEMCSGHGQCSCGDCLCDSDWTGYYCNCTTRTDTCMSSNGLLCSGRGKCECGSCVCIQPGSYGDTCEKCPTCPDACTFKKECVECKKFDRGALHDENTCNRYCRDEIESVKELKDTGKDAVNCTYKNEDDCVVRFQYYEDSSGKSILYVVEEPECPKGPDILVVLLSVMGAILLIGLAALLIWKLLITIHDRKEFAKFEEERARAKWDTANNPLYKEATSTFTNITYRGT

Substance: cyclo-CNPRGDY(-OEt)RC [cRGD]
- IC50 by aggregometry, lower compared to lRGD ([1]; FIG. 18 legend): ~2 orders of magnitude
- IC50 (inhibition of platelet aggregation) relative to lRGD ([1]; PRP, ADP 10 μM, 37° C.): about 1000 times lower
- affinity and selectivity for GPIIb-IIIa compared with αvβ3, αvβ5 and α5β1 (GPIIb-IIIa (αIIbβ3)): high affinity and selectivity for GPIIb-IIIa
